The results in this text go back to patent US20250018068A1, “4H-IMIDAZO[1,5-B]PYRAZOLE DERIVATIVES FOR DIAGNOSIS” (AC IMMUNE SA, priority 2021, published 2025).

For test [1], the target named is T1, pathological alpha-synuclein aggregates (Homo sapiens, UniProt P37840, G51D).
T1 construct: Frozen human brain sections from one familial PD case; from tissue; host or cells: frozen human brain sections: SNCA (G51D) familial PD, PDD, MSA, LBV, non-demented controls
As to the kind of experiment: Autoradiography on frozen human brain sections (specific binding, Kd). As for the experimental part: (§1) Frozen human brain sections from one familial PD case (alpha-synuclein [SNCA] gene G51D missense mutation), labelled as SNCA (G51D), one PDD case, one MSA case, one LBV case and two non-demented control (NDC) cases were first briefly fixed for 15 minutes at 4° C. with 4% paraformaldehyde (Sigma, 252549) and washed three times for five minutes with PBS (Dulbecco's phosphate buffered saline, Sigma) at RT. All slides were then equilibrated for 20 minutes in 50 mM Tris-HCl pH 7.4 buffer prior to use in the experiment. Each brain section was incubated with a fixed concentration (10 nM) of tritiated example compound 1 ([^3H]-Example-1) or increasing concentrations of [^3H]-Example-1 in the range of 2.5 nM to 80 nM of tritiated compound in Tris-HCl buffer for two hours at RT (Total binding, ‘TB’). To determine non-specific (NSB) binding ([^3H]-Example-1 was mixed with 5 μM of non-radiolabelled compound (Example 1, self-block, ‘NSB’). The slides were washed and then exposed and scanned in a real-time autoradiography system (BeaQuant instrument, ai4R). Specific binding was determined by subtracting the non-specific signal from the total signal. Kd values were calculated in GraphPad Prism7 by applying a nonlinear regression curve fit using a one site specific binding model.

Test [2] relates to pathological alpha-synuclein aggregates. Described as above. Conditions: 10 nM. On the procedure:
as §1

The next test deals with Tau aggregates. The experiment in a line: High resolution micro-autoradiography on AD tissue containing pathological Tau aggregates. In kind it is binding, human. As for the experimental part: (§2) The protocol was adapted from Marquie et al., 2015. Sections were incubated with tritiated example compound 1 ([^3H]-Example-1) at 10 nM or 20 nM or a reference Tau ligand ([^3H]-Tau-Ref at 20 nM for one hour at room temperature (RT). Sections were then washed as follows: One time in ice-cold 50 mM Tris-HCl pH 7.4 buffer for one minute, two times in 70% ice-cold ethanol for one minute, one time in ice-cold 50 mM Tris-HCl pH 7.4 buffer for one minute and finally rinsed briefly in ice-cold distilled water. Sections were subsequently dried and then exposed to Ilford Nuclear Emulsion Type K5 (Agar Scientific, AGP9281) in a light-proof slide storage box. After five days, the sections were developed by immersing them successively in the following solutions: 1.) Ilford Phenisol Developer (1:5 dilution in H2O, Agar Scientific, AGP9106), 2.) Ilfostop solution (1:20 dilution in H2O, Agar Scientific, AGP9104), 3.) Ilford Hypam Fixer (1:5 dilution in H2O, Agar Scientific, AGP9183) and finally rinsed with H2O.
When indicated, immunostaining was also performed on the same section. For image acquisition, sections were mounted using ProLong Gold Antifade reagent (Invitrogen P36930) and imaged on a Panoramic150 Slide Scanner (3DHistech) with a 20×objective capturing separately brightfield and fluorescent images.

In test [3] the target is T2, alpha-synuclein aggregates (Lewy bodies and Lewy neurites) (Homo sapiens, UniProt P37840).
T2 construct: performed on frozen human brain sections from different alpha-synucleinopathy cases; from tissue; host or cells: frozen human brain sections (PD, PDD, MSA, DLB, LBV)
As to the kind of experiment: High resolution micro-autoradiography, target engagement in alpha-synucleinopathy tissues. In kind it is binding. Conditions: frozen human brain sections, PD, MSA, DLB, LBV, PDD; 10 nM or 20 nM. On the procedure: as §2
When indicated, immunostaining was also performed on the same section. For image acquisition, sections were mounted using ProLong Gold Antifade reagent (Invitrogen P36930) and imaged on a Panoramic150 Slide Scanner (3DHistech) with a 20×objective capturing separately brightfield and fluorescent images. […]

The target of test [4] is T3, PD brain-derived alpha-synuclein aggregates (Homo sapiens, UniProt P37840).
T3 construct: from tissue; host or cells: human PD donor brain, sarkosyl-insoluble pellet
The experiment in a line: Saturation binding on PD brain-derived alpha-synuclein aggregates by micro-radiobinding. Conditions: PD brain tissue homogenates. As for the experimental part: The procedure was adapted from the protocol described in Spillantini et al., 1998. Frozen tissue blocks from PD donors were thawed on ice and homogenized using a glass dounce homogenizer. The homogenate was then centrifuged at 11,000×g (12,700 RPM) in an ultracentrifuge (Beckman, XL100K) for 20 minutes at 4° C. using a pre-cooled 70.1 rotor (Beckman, 342184). Pellets were resuspended in extraction buffer [10 mM Tris-HCl pH 7.4, 10% sucrose, […], 1% protease inhibitor (Calbiochem 539131), 1 mM EGTA, 1% phosphatase inhibitor (Sigma P5726 and P0044)] and centrifuged at 15,000×g (14,800 RPM, a 70.1 Ti rotor) for 20 minutes at 4° C. […]
PD brain-derived alpha-synuclein aggregates were spotted onto microarray slides. […] Following exposure, phosphor storage screens were scanned with a laser imaging system (Typhoon FLA 7000) to readout the signal from the radiobinding experiments described above. Quantification of the signal was performed using the ImageJ software package. Non-specific signal was determined with an excess of non-radiolabelled reference ligand (Example-1 at 2 μM) and specific binding was calculated by subtracting the non-specific signal from the total signal. Kd values were calculated in GraphPad Prism7 by applying a nonlinear regression curve fit using a one site specific binding model.

“Also recorded” adds a separate entry of the source.

For the compound `[3H]c1cncc(N2Cc3cc(-c4cnc(N5CC[C@H](F)C5)c([3H])c4)nn3C2=O)c1` [[^3H]-Example-1], in test [1] (2.5 nM to 80 nM, SNCA (G51D) brain sections), the “Autoradiography signal in a genetic PD case” value is given as “dose-dependent autoradiography signal”. Further, the Kd was 44 nM in test [1] (human brain tissue sections, familial PD case (SNCA G51D missense mutation), autoradiography) and 18 nM in test [4]. For the same compound, in test [2] (non-demented control (NDC) brain sections), the “Autoradiographic signal in non-demented control cases” value is “very weak”. Besides, the “Target engagement in alpha-synucleinopathy tissues by autoradiography” value in test [2] (one PDD, one LBV and one MSA case) was “displayed target engagement”. For the same compound, the “Selectivity for alpha-synuclein over Tau pathological aggregates” value with Tau aggregates (AD brain tissue) is recorded as “good selectivity for alpha-synuclein over Tau”. Further, the “Target engagement on Tau aggregates in AD brain tissue” value with Tau aggregates (AD tissue, compared to reference Tau ligand [3H]-Tau-Ref) is recorded as “did not display specific target engagement; also recorded: No accumulation of silver grains”. In addition, in test [3], the “Target engagement on Lewy bodies and Lewy neurites (silver grains co-localized with a-syn-pS129)” value is listed as “strong target engagement”.

In general, Kd refers to the equilibrium constant for the complex coming apart.
